What was measured:
Endothelial lipase (EL) = Endothelial lipase (EL) (Homo sapiens (Human), UniProt Q9Y5X9); assay: EL assay: endothelial lipase activity with fluorescent substrate A10070 in DMPG vesicles; assay type: biochemical
Outline: (§1)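 Substrate A10070 sits in sonicated DMPG vesicles at 0.11 mole fraction. Lipase and compound preincubated 30 min, 37° C, in HEPES pH 8.0 buffer with CaCl2.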

hepatic lipase (HL) = hepatic lipase (HL) (Homo sapiens (Human), UniProt P11150); assay: HL assay: hepatic lipase activity with fluorescent substrate A10070 in DMPG vesicles; assay type: biochemical
Outline: as §1

Sequence of hepatic lipase (HL) (P11150 23-499, species assumed): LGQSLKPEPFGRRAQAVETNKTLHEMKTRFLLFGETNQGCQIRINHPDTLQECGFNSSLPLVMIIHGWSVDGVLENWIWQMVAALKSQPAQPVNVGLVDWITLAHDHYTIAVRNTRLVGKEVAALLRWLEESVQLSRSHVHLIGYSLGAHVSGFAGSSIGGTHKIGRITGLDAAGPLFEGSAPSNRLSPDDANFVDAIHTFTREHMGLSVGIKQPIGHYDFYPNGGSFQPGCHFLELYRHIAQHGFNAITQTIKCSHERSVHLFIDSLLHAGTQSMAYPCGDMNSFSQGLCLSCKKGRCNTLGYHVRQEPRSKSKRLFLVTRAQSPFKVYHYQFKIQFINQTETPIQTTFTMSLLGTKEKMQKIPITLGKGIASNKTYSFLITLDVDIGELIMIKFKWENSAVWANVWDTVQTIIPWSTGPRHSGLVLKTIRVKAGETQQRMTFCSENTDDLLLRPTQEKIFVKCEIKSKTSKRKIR
Sequence of Endothelial lipase (EL) (Q9Y5X9 21-500): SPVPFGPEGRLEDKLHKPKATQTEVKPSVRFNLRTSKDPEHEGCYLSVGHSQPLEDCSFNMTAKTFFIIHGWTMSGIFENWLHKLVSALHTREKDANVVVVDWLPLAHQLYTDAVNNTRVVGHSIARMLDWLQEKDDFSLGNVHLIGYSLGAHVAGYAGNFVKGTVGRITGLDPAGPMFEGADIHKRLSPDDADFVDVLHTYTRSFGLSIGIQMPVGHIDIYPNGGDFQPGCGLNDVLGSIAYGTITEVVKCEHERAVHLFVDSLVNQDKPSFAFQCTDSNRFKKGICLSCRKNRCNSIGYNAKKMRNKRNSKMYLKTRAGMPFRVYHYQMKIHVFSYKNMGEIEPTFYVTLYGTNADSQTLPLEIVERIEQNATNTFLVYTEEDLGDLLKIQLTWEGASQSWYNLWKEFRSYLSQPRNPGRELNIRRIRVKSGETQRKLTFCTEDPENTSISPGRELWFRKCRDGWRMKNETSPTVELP

Row | IC50 (Endothelial lipase (EL)) [nM] | IC50 (hepatic lipase (HL)) [nM] | Structure (SMILES)
1 | < 10 | 933 | NS(=O)(=O)CCNC(=O)C(c1nc2ccc(-c3cnn(CCN4CCOCC4)c3)cc2s1)S(=O)(=O)CCCC(F)(F)F (stereo not shown) [Example B127, 2-(6-(1-(2-(4-morpholinyl)eth-yl)-1H-pyrazol-4-yl)-1,3-benzothiazol-2-yl)-N-(2-sulfamoylethyl)-2-((4,4,4-trifluorobutyl)sul-fonyl)acetamide]
2 | < 10 | < 10 | Cc1cc2nc(C(C(=O)NCCS(N)(=O)=O)S(C)(=O)=O)sc2cc1-c1ccc(F)nc1 (stereo not shown) [Example B129]
3 | < 10 | 13 | Cc1cc2nc(C(C(=O)NCCS(N)(=O)=O)S(=O)(=O)CCC(F)(F)F)sc2cc1-c1ccc(F)nc1 (stereo not shown) [Example B130, 2-(6-(6-fluoro-3-pyridinyl)-5-methyl-1,3-benzothiazol-2-yl)-2-(3,3,3-trifluoropropyl-sulfonyl)-N-(2-sulfamoylethyl)acetamide]
4 | < 10 | 12 | Cc1cc2nc(C(C(=O)NCCS(N)(=O)=O)S(=O)(=O)CC(C)C)sc2cc1-c1ccc(F)nc1 (stereo not shown) [Example B131, 2-(6-(6-fluoro-3-pyridinyl)-5-methyl-1,3-benzothiazol-2-yl)-2-(isobutylsulfonyl)-N-(2-sulfamoylethyl)acetamide]
5 | < 10 | 411 | Cc1cc2nc(C(C(=O)NCCS(N)(=O)=O)S(=O)(=O)C(C)C)sc2cc1-c1ccc(F)nc1 (stereo not shown) [Example B132, 2-(6-(6-fluoro-3-pyridinyl)-5-methyl-1,3-benzothiazol-2-yl)-2-(isopropylsulfonyl)-N-(2-sulfamoylethyl)acetamide]
6 | < 10 | 22 | NS(=O)(=O)CCNC(=O)C(c1nc2c(F)cc(-c3ccccc3)cc2s1)S(=O)(=O)Cc1ccccc1 (stereo not shown) [Example B133, 2-(benzylsulfonyl)-2-(4-fluoro-6-phenyl-1,3-benzothiazol-2-yl)-N-(2-sulfamoylethyl)acetamide]
7 | < 10 | 18 | COCCS(=O)(=O)C(C(=O)NCCS(N)(=O)=O)c1nc2c(F)cc(-c3ccccc3)cc2s1 (stereo not shown) [Example B134, 2-(4-fluoro-6-phenyl-1,3-benzothiazol-2-yl)-2-((2-methoxyethyl)sulfonyl)-N-(2-sulfamoylethyl)a-cetamide]
8 | < 10 | 56 | NS(=O)(=O)CCNC(=O)C(c1nc2cc(F)c(-c3ccccc3)cc2s1)S(=O)(=O)CCNC(=O)OCc1ccccc1 (stereo not shown) [Example B135, benzyl (2-((1-(5-fluoro-6-phenyl-1,3-benzothiazol-2-yl)-2-oxo-2-((2-sulfamoyl-ethyl)amino)ethyl)sul-fonyl)ethyl)carbamate]
9 | < 10 | 11 | NS(=O)(=O)CCNC(=O)C(c1nc2cc(F)c(-c3ccccc3)cc2s1)S(=O)(=O)CCC(F)(F)F (stereo not shown) [Example B136, 2-(5-fluoro-6-phenyl-1,3-benzothiazol-2-yl)-N-(2-sulfamoylethyl)-2-[(3,3,3-trifluoropropyl)sulfonyl]a-cetamide]
10 | < 10 | 17500 | CS(=O)(=O)C(C(=O)NCc1csc(N)n1)c1nc2ccc(-c3ccc(C(=O)N4CCOCC4)cc3)cc2s1 (stereo not shown) [Example B137, N-((2-amino-1,3-thiazol-4-yl)methyl)-2-(methylsulfonyl)-2-(6-(4-(4-morpholinylcarbonyl)phen-yl)-1,3-benzothiazol-2-yl)acetamide]
11 | < 10 | 142 | Cn1cc(-c2cc3sc(C(C(=O)NCCS(N)(=O)=O)S(=O)(=O)Cc4ccccc4)nc3cc2F)cn1 (stereo not shown) [Example B138, 2-(benzylsulfonyl)-2-(5-fluoro-6-(1-methyl-1H-pyrazol-4-yl)-1,3-benzothiazol-2-yl)-N-(2-sulfamoylethyl)acetamide]
12 | 16 | 2090 | NS(=O)(=O)CCNC(=O)C(c1nc2ccc(-c3cncnc3)cc2s1)S(=O)(=O)CCC(F)(F)F (stereo not shown) [Example B139, 2-(6-(5-Pyrimidinyl)-1,3-benzothiazol-2-yl)-N-(2-sulfamoylethyl)-2-((3,3,3-trifluoropropyl)sulfonyl)a-cetamide]
13 | 13.7 | 8790 | NS(=O)(=O)CCNC(=O)C(c1nc2ccc(-c3cncnc3)cc2s1)S(=O)(=O)Cc1ccccc1 (stereo not shown) [Example B140, 2-(benzylsulfonyl)-2-(6-(5-pyrimidinyl)-1,3-benzothiazol-2-yl)-N-(2-sulfamoylethyl)acetamide]
14 | 14.7 | 2210 | COCCS(=O)(=O)C(C(=O)NCCS(N)(=O)=O)c1nc2ccc(-c3cncnc3)cc2s1 (stereo not shown) [Example B141, 2-((2-methoxyethyl)sul-fonyl)-2-(6-(5-pyrimidinyl)-1,3-benzothiazol-2-yl)-N-(2-sulfamoylethyl)acetamide]
15 | > 10 | 77 | COc1cc(-c2ccc3nc(C(C(=O)NCCS(N)(=O)=O)S(C)(=O)=O)sc3c2)c(F)cn1 (stereo not shown) [Example B142, 2-(6-(5-fluoro-2-methoxy-4-pyridinyl)-1,3-benzothiazol-2-yl)-2-(methylsulfonyl)-N-(2-sulfamoylethyl)acetamide]
16 | 18 | 4740 | NS(=O)(=O)CCNC(=O)C(c1nc2ccc(-c3cncnc3)cc2s1)S(=O)(=O)Cc1ccc(F)cc1 (stereo not shown) [Example B143, 2-((4-fluorobenzyl)sul-fonyl)-2-(6-(5-pyrimidinyl)-1,3-benzothiazol-2-yl)-N-(2-sulfamoylethyl)acetamide]
17 | < 10 | 33 | COc1cc(-c2ccc3nc(C(C(=O)NCCS(N)(=O)=O)S(=O)(=O)CCC(F)(F)F)sc3c2)ccn1 (stereo not shown) [Example B144, 2-(6-(2-methoxy-4-pyridinyl)-1,3-benzothiazol-2-yl)-N-(2-sulfamoylethyl)-2-((3,3,3-trifluoropropyl)sulfonyl)a-cetamide]
18 | < 10 | 362 | Cn1ccc(-c2ccc3nc(C(C(=O)NCCS(N)(=O)=O)S(=O)(=O)CCC(F)(F)F)sc3c2)cc1=O (stereo not shown) [Example B145, 2-(6-(1-methyl-2-oxo-1,2-dihydro-4-pyridinyl)-1,3-benzothiazol-2-yl)-N-(2-sulfamoylethyl)-2-((3,3,3-trifluoropropyl)sulfonyl)a-cetamide]
19 | < 10 | 916 | CS(=O)(=O)C(C(=O)NCCS(N)(=O)=O)c1nc2ccc(-c3cncnc3)cc2s1 (stereo not shown) [Example B146, 2-(methylsulfonyl)-2-(6-(5-pyrimidinyl)-1,3-benzothiazol-2-yl)-N-(2-sulfamoylethyl)acetamide]
20 | < 10 | < 10 | COc1cc(-c2ccc3nc(C(C(=O)NCCS(N)(=O)=O)S(C)(=O)=O)sc3c2)ccn1 (stereo not shown) [Example B147, 2-(6-(2-methoxy-4-pyridinyl)-1,3-benzothiazol-2-yl)-2-(methylsulfonyl)-N-(2-sulfamoylethyl)acetamide]
21 | < 10 | 13 | COCCS(=O)(=O)C(C(=O)NCCS(N)(=O)=O)c1nc2ccc(-c3ccnc(OC)c3)cc2s1 (stereo not shown) [Example B148, 2-((2-methoxyethyl)sul-fonyl)-2-(6-(2-methoxy-4-pyridinyl)-1,3-benzothiazol-2-yl)-N-(2-sulfamoylethyl)acetamide]
22 | < 10 | 64 | COc1nccc(-c2ccc3nc(C(C(=O)NCCS(N)(=O)=O)S(C)(=O)=O)sc3c2)c1F (stereo not shown) [Example B149, 2-(6-(3-fluoro-2-methoxy-4-pyridinyl)-1,3-benzothiazol-2-yl)-2-(methylsulfonyl)-N-(2-sulfamoylethyl)acetamide]
23 | < 10 | 84 | Cc1nnc(CNC(=O)C(c2nc3cc(F)c(-c4ccccc4)cc3s2)S(=O)(=O)CCC(F)(F)F)o1 (stereo not shown) [Example B150, 2-(5-Fluoro-6-phenyl-1,3-benzothiazol-2-yl)-N-((5-methyl-1,3,4-oxadiazol-2-yl)methyl)-2-((3,3,3-trifluoropropyl)sulfonyl)a-cetamide]
24 | < 10 | 47 | CCS(=O)(=O)C(C(=O)NCc1nnc(C)o1)c1nc2cc(F)c(-c3ccccc3)cc2s1 (stereo not shown) [Example B151, 2-(ethylsulfonyl)-2-(5-fluoro-6-phenyl-1,3-benzothiazol-2-yl)-N-((5-methyl-1,3,4-oxadiazol-2-yl)methyl)acetamide]
25 | < 10 | 39 | Cc1nnc(CNC(=O)C(c2nc3cc(F)c(-c4ccccc4)cc3s2)S(=O)(=O)CC(C)C)o1 (stereo not shown) [Example B152, 2-(5-fluoro-6-phenyl-1,3-benzothiazol-2-yl)-2-(isobutylsulfonyl)-N-((5-methyl-1,3,4-oxadiazol-2-yl)methyl)acetamide]
26 | < 10 | 39 | Cc1nnc(CNC(=O)C(c2nc3cc(F)c(-c4ccccc4)cc3s2)S(=O)(=O)Cc2ccccc2)o1 (stereo not shown) [Example B153, 2-(benzylsulfonyl)-2-(5-fluoro-6-phenyl-1,3-benzothiazol-2-yl)-N-((5-methyl-1,3,4-oxadiazol-2-yl)methyl)acetamide]
27 | < 10 | 11 | Cc1nnc(CNC(=O)C(c2nc3cc(F)c(-c4ccccc4)cc3s2)S(C)(=O)=O)o1 (stereo not shown) [Example B154, 2-(5-fluoro-6-phenyl-1,3-benzothiazol-2-yl)-N-[(5-methyl-1,3,4-oxadiazol-2-yl)methyl]-2-(methylsulfonyl)acetamide]
28 | < 10 | < 10 | COCCS(=O)(=O)C(C(=O)NCc1nnc(C)o1)c1nc2cc(F)c(-c3ccccc3)cc2s1 (stereo not shown) [Example B155, 2-(5-fluoro-6-phenyl-1,3-benzothiazol-2-yl)-2-[(2-methoxyethyl)sulfonyl]-N-[(5-methyl-1,3,4-oxadiazol-2-yl)methyl]acetamide]
29 | < 10 | < 10 | CC(C)(C)OC(=O)c1ccc(-c2ccc3nc(C(C(=O)NCCS(N)(=O)=O)S(C)(=O)=O)sc3c2)cc1 (stereo not shown) [Example B156, tert-butyl 4-(2-(1-(methylsulfonyl)-2-oxo-2-(2-sulfamoylethylamino)eth-yl)benzo[d]thiazol-6-yl)benzoate]

From patent publication US8987314B2, “Amide, urea or sulfone amide linked benzothiazole inhibitors of endothelial lipase” (Bristol-Myers Squibb Company, priority 2012, dated 2015)
